Data: patent US12527870B2, “Peptide hydrogels for delivery of immunosuppressive drugs and uses thereof” (THE JOHNS HOPKINS UNIVERSITY, priority 2018, dated 2026)
Where a name gives a salt, the structure may show the parent alone.

Legend:
Format in all cases: physicochemical
[1] = Ex vivo drug release from peptide hydrogel into buffer
Excerpt: FIGS. 1A-1D: Release profiles of tofacitinib from peptide hydrogels. (FIG. 1A) Sustained release profile of tofacitinib free base vs burst release of tofacitinib citrate salt from MAX8 peptide hydrogel at early time points. (FIG. 1B) Release profiles of tofacitinib free base and citrate at longer time duration. (FIG. 1C) Variation of release profiles of tofacitinib free base based on the initial amount of drug loading. (FIG. 1D) Release profiles of tofacitinib free base from MAX1 and HLT2 peptide hydrogels. Concentration of tofacitinib free base was 16 mM. In each case, release of the drug was monitored from the hydrogel into an infinite sink (25 mM HEPES, 150 mM NaCl, pH 7.4) at 37° C. Lines are included for visual guidance.
A MAX8 peptide stock solution was prepared in glass vials by dissolving 1 mg of peptide in 50 μL of chilled sterile water. Tofacitinib free base and tofacitinib citrate (purchased from LC Laboratories, Woburn, MA) stock solutions were prepared in spectrophotometric grade DMSO with final concentrations of 100 μg/μL and 160 μg/μL, respectively. Concentration of the stock solution was determined in such a way that would maintain equal ratio of DMSO to HEPES buffered saline (HBS) (v/v) while loading equimolar concentration of tofacitinib free base and citrate into the hydrogel. Required volume of drug stock solution was added into a chilled solution of HBS (2X HBS, 50 mM HEPES, 300 mM NaCl, pH 7.4) to make the final volume as 50 μL. At this point, care was taken to avoid mixing before the peptide stock solution had been transferred to the resulting suspension. Peptide solution was added and samples were then mixed to initiate hydrogelation, resulting in a 1.0 wt % gel of a final total volume of 100 μL containing required amount of loaded drug. Tofacitinib free base was loaded to the final concentrations of 1.6, 3.2 and 16 mM. For tofacitinib citrate salt, only hydrogels with a final concentration of 16 mM loaded drug were considered for drug release studies. Samples were placed in an incubator at 37° C. for 24 hours. After 24 hours, 1 mL of 1X HBS (25 mM HEPES, 150 mM NaCl, pH 7.4) was added to the top of gel. At scheduled time points, the entire volume of buffer above the gel was removed and replaced with fresh buffer. Drug concentration was determined for each removed aliquot as a function of time by measuring absorbance at 290 nm in a UV-VIS spectrophotometer (Agilent 8453) with a standard curve constructed under similar conditions.

[2] = Crystallization of drug within peptide hydrogel (phase-contrast, confocal, polarized light microscopy)
Procedure: During hydrogel-mediated encapsulation, when used at a loading concentration of 16 mM, tofacitinib free base initially produced an opaque suspension that turned into a transparent hydrogel as the drug dissolved in the self-assembled peptide matrix at 37° C. during the first 2-3 hours. […] Approximately 10 μL of the hydrogel was then placed on a glass slide and covered with a cover slip. Phase-contrast microscopy (EVOS FL Cell Imaging System) and confocal microscopy (LSM 710) were used to characterize the drug aggregates suspended in the hydrogel matrix. Crystallinity of the aggregates was verified from polarized light microscopy at low and high magnification.
Shown in FIGS. 2A-2C are phase contrast images of tofacitinib free base encapsulated within MAX8 peptide hydrogel at the drug concentrations of 16 mM (FIG. 2A), 1.6 mM (FIG. 2B) and blank MAX8 peptide hydrogel (FIG. 2C). Shown in FIGS. 2D-2E are confocal microscopy-generated differential interference contrast images of tofacitinib free base microcrystals dispersed in MAX8 peptide gel network at a drug concentration of 16 mM.

[3] = Release profile from MAX8 hydrogel with varying DMSO volume ratio; conditions: 16 mM, DMSO 2-30% by volume
Procedure: FIGS. 6A-6B: Release profile of tofacitinib from MAX8 hydrogel. (FIG. 6A) Cumulative release profiles of tofacitinib (free base) from MAX8 hydrogel containing different volume ratios of DMSO versus hydrogel. In each case, the tofacitinib stock solution was prepared in DMSO and an increasing volume of the DMSO stock was added while constituting the hydrogel. The total concentration of loaded tofacitinib was constant at 16 mM. Release profile of the drug was monitored from the hydrogel into buffer (25 mM HEPES, 150 mM NaCl, pH 7.4) at 37° C. (FIG. 6B) Release rate of tofacitinib from MAX8 hydrogel containing varying volumes of DMSO during the first 4 hours.
In each case, the tofacitinib stock solution was prepared in DMSO and an increasing volume of the DMSO stock was added while constituting the hydrogel. The total concentration of loaded tofacitinib was constant at 16 mM. The release profile of the drug was monitored from the hydrogel into buffer (25 mM HEPES, 150 mM NaCl, pH 7.4) at 37° C.

[4] = MAX8 hydrogel, 16 mM loading, HBS pH 7.4, 37° C.
[5] = MAX8 hydrogel, 16 mM loading, 37° C.

| period to show similar cumulative release (over 75%) ([1]; MAX8 hydrogel, 16 mM loading, crystallized state, HBS pH 7.4, 37° C.) [days] | release profile from MAX8 hydrogel, free base vs citrate [1, 4] | release profile at lower loading compared to 16 mM ([1]; MAX8 hydrogel, 0.48, 1.6 and 3.2 mM loading) | drug released within the first 10 hours ([1]; MAX8 hydrogel, loading 0.48 to 3.2 mM, soluble (not crystallized) drug, into 25 mM HEPES, 150 mM NaCl, pH 7.4, 37° C.) | crystallization within HLT2 hydrogel ([2]; HLT2 hydrogel, 16 mM loading) | crystallization within MAX1 hydrogel ([2]; MAX1 hydrogel, 16 mM loading) | loading concentration needed for crystallization ([2]; MAX8 hydrogel) | crystallization within MAX8 hydrogel [2, 5] | time of in situ crystallization after dissolution ([2]; MAX8 hydrogel, 16 mM, 37° C., after the first 2-3 hours) [h] | crystallization within MAX8 hydrogel below 16 mM ([2]; MAX8 hydrogel, loading concentration below 16 mM) | effect of decreasing the DMSO concentration on solubility [3] | Compound |
| --- | --- | --- | --- | --- | --- | --- | --- | --- | --- | --- | --- |
| 6 | slower, more sustained release | more rapid release | over 75% | crystallized | crystallized | above 3.2 mM | gradually crystallized in situ | ~20 | no visible indication of crystallization | reduces the solubility | C[C@@H]1CCN(C(=O)CC#N)C[C@@H]1N(C)c1ncnc2[nH]ccc12 [tofacitinib free base, 3-((3R,4R)-4-methyl-3-(methyl (7H-pyrrolo[2,3-d]pyrimidin-4-yl)amino)piperidin-1-yl)-3-oxopropanenitrile] |
| – | released faster | – | – | – | – | – | did not crystallize | – | – | – | C[C@@H]1CCN(C(=O)CC#N)C[C@@H]1N(C)c1ncnc2[nH]ccc12 [tofacitinib citrate] |
